In patent US4423063A, “2,4-Dioxo-4-substituted-1-butaoic acid derivatives useful in treating urinary track calcium oxalate lithiasis” (Merck & Co., Inc., priority 1982, dated 1983):

Molecular target: T1, pig liver glycolate oxidase (Sus scrofa, UniProt I3LVF1)
T1 construct: The enzyme was pig liver glycolate oxidase; from tissue; host or cells: pig liver
T1 sequence (I3LVF1 1-370): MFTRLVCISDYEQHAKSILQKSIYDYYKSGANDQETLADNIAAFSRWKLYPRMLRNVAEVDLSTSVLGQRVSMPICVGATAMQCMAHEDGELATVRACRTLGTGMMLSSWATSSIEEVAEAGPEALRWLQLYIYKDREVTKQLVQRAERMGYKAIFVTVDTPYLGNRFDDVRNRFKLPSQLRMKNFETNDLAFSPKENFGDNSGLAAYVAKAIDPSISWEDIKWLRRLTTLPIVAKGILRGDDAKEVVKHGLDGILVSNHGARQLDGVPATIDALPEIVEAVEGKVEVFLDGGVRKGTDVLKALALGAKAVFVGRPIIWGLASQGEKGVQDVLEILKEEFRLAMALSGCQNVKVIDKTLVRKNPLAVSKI
Experiment: Glycolate oxidase enzyme inhibition
Assay type: biochemical
Settings: 25° C., 0.10 M phosphate buffer pH 7.0, 3 mM EDTA, 2×10^-4 M sodium glycolate
Description: The usefulness of the compounds of the present invention in treating urinary tract, especially renal, calcium oxalate lithiasis, is shown by the ability of those compounds to inhibit the glycolate oxidase enzyme. […] The activity of the enzyme, in turn, was measured by following the rate of reduction of sodium 2,6-dichlorophenol-indophenol by sodium glycolate in the presence of the enzyme. The enzyme was pig liver glycolate oxidase. The reaction was followed spectrophotometrically at 600 nm. The assay was conducted at 25° C. in a 0.10 M phosphate buffer, pH 7.0, containing 3 mM EDTA. Initial substrate concentrations were 5×10^-5 M of sodium 2,6-dichlorophenol-indophenol and 2×10^-4 M of sodium glycolate. Reactions were initiated by the addition of enzyme. Initial rates during the period from 1 to 3 min. after the addition of enzyme were recorded on a Beckman Acta M-VI spectrophotometer. One control was run simultaneously with three test reactions and all initial rates were adjusted to a common control rate. For further details of this procedure, see Randall et al., J. Med. Chem., 22, 6, 612 (1979).

Compound	IC50	IC50 (unit inferred)
CSc1ccc(-c2ccc(C(=O)CC(=O)C(=O)O)cc2)cc1 [4-[(4'-Methylthio-1,1'-biphenyl)-4-yl]-2,4-dioxo-1-butanoic acid]		150 nM
O=C(O)C(=O)CC(=O)c1ccc(-c2ccc(S)cc2)cc1 [4-[(4'-Mercapto-1,1'-biphenyl)-4-yl]-2,4-dioxo-1-butanoic acid]	2100 nM	
O=C(O)C(=O)CC(=O)c1ccc(-c2ccc(SCc3ccccc3)cc2)cc1 [4-[[4'-[(Phenylmethyl)thio]-1,1'-biphenyl]-4-yl]-2,4-dioxo-1-butanoic acid]	420 nM	

Further lines, results first:

IC50	IC50 (unit inferred)	Compound
90 nM		O=C(O)C(=O)CC(=O)c1ccc(-c2ccc(SCCc3ccncc3)cc2)cc1 [4-[[4'-[2-(4-Pyridinylethyl)thio]-1,1'-biphenyl]-4-yl]-2,4-dioxo-1-butanoic acid]
62 nM		O=C(O)C(=O)CC(=O)c1ccc(-c2ccc(SCC3(O)COc4ccccc4OC3)cc2)cc1 [4-[[4'-[(3,4-dihydro-3-hydroxy-2H-1,5-benzodioxepin-3-yl)methylthio]-1,1'-biphenyl]-4-yl]-2,4-dioxo-1-butanoic acid]
